These results are taken from patent US20250339569A1, “CARBONIC ANHYDRASE IX LIGANDS” (priority 2021, published 2025).

Molecules are shown by their SMILES. Starred links: 1 amine or outer side, 2 acyl side, 3 side chain; linkers in the order of their positions; H or OH if unused. Positions of bridges follow the written chain, without caps; N, C: chain ends. Non-standard residues stand in square brackets, D forms with d. Residues, ends and D or L forms follow the SMILES beside them. *: point of attachment. DOTA = O=C(O)CN1CCN(CC(=O)O)CCN(CC(=O)*)CCN(CC(=O)O)CC1; mXylylene = c1cc(C[*:1])cc(C[*:2])c1; Orn(Me2) = CN(C)CCC[C@H](N)C(=O)O; X2 = O=C(CN1CCC(N[*:1])CC1)[*:2]; Pen = CC(C)(S)[C@H](N)C(=O)O; Ac6c = NC1(C(=O)O)CCCCC1; Orn = NCCC[C@H](N)C(=O)O; Dab = NCC[C@H](N)C(=O)O; Thp = NC1(C(=O)O)CCOCC1

For one experiment, the target named is T1, CAIX-expressing human HT-29 colorectal cancer cells (Homo sapiens, UniProt Q16790).
T1 construct: CAIX-expressing human HT-29 colorectal cancer cells; host or cells: HT-29 human colorectal cancer cells
The experiment is described as follows: FACS binding assay (IC50 determination, competition with tracer 3BP-2776 or 3BP-4149). The settings on record: FACS binding assay, HT-29 cells, competition with tracer 3BP-2776 (10 nM, biotin-labeled), 4° C., 1 hour; read-out: pIC50 category (activity) (converted). The method in brief: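 HT-29 cells in FACS buffer (PBS, 1% FCS) at 500.000 cells/ml were exposed to compounds competing with a labelled tracer, with biotinylated compounds detected by 1 μg/mL APC-streptavidin for 30 min on ice. APC/Cy5 median fluorescence was read by flow cytometry and IC50 derived by 4PL fit.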
A general note: A flow cytometer gives signals particle by particle.
Consider `CC(=O)N[C@H](C(=O)N[C@@H](Cc1ccc(O)cc1)C(=O)N[C@H]1CSCc2cccc(c2)CSC[C@@H](C(N)=O)NC(=O)[C@H](CO)NC(=O)[C@H](Cc2c[nH]c3ccccc23)NC(=O)[C@@H]2CCC(=O)NCCC[C@H](NC(=O)[C@H]3CCCN3C(=O)[C@H](CCC(=O)O)NC1=O)C(=O)N[C@@H](Cc1c[nH]c3ccccc13)C(=O)N[C@@H](CC(C)C)C(=O)N2)C(C)C` [3BP-3958] (Ac-VYCE[dP][Orn]WLEWSC-NH2; linker 3-12 via mXylylene; lactam 6-9), for which the IC50 is 10 to 79.4 nM.

Regarding `CC(=O)N[C@H](C(=O)N[C@@H](Cc1ccc(O)cc1)C(=O)N[C@H]1CSCc2cccc(c2)CSC[C@@H](C(N)=O)NC(=O)[C@H](CO)NC(=O)[C@H](Cc2c[nH]c3ccccc23)NC(=O)[C@@H]2CCC(=O)NCC[C@H](NC(=O)[C@H]3CCCN3C(=O)[C@H](CCC(=O)O)NC1=O)C(=O)N[C@@H](Cc1c[nH]c3ccccc13)C(=O)N[C@@H](CC(C)C)C(=O)N2)C(C)C` [3BP-3960] (Ac-VYCE[dP][Dab]WLEWSC-NH2; linker 3-12 via mXylylene; lactam 6-9), the IC50 was 10 to 79.4 nM.

As for `CC(=O)N[C@H](C(=O)N[C@@H](Cc1ccc(O)cc1)C(=O)N[C@H]1CSCc2cccc(c2)CSC[C@@H](C(N)=O)NC(=O)[C@H](CO)NC(=O)[C@H](Cc2c[nH]c3ccccc23)NC(=O)[C@@H]2CCC(=O)NCCCC[C@H](NC(=O)[C@H]3CCCN3C(=O)[C@H](CCC(=O)O)NC1=O)C(=O)N[C@@H](Cc1c[nH]c3ccccc13)C(=O)NC1(CCCCC1)C(=O)N2)C(C)C` [3BP-3961] (Ac-VYCE[dP]KW[Ac6c]EWSC-NH2; linker 3-12 via mXylylene; lactam 6-9), the IC50 was 10 to 79.4 nM.

Take `CC(=O)N[C@H](C(=O)N[C@@H](Cc1ccc(O)cc1)C(=O)N[C@H]1CSCc2cccc(c2)CSC[C@@H](C(N)=O)NC(=O)[C@H](CO)NC(=O)[C@H](Cc2c[nH]c3ccccc23)NC(=O)[C@@H]2CCC(=O)NCCCC[C@H](NC(=O)[C@H]3CCCN3C(=O)[C@H](CCC(=O)O)NC1=O)C(=O)N[C@@H](Cc1c[nH]c3ccccc13)C(=O)NC1(CCOCC1)C(=O)N2)C(C)C` [3BP-3962] (Ac-VYCE[dP]KW[Thp]EWSC-NH2; linker 3-12 via mXylylene; lactam 6-9): the IC50 was 100 to 794 nM.

Turning to `CC(=O)N[C@H](C(=O)N[C@@H](Cc1ccc(O)cc1)C(=O)N[C@H]1CSCc2cccc(c2)CSC(C)(C)[C@@H](C(N)=O)NC(=O)[C@H](CO)NC(=O)[C@H](Cc2c[nH]c3ccccc23)NC(=O)[C@@H]2CCC(=O)NCCCC[C@H](NC(=O)[C@H]3CCCN3C(=O)[C@H](CCC(=O)O)NC1=O)C(=O)N[C@@H](Cc1c[nH]c3ccccc13)C(=O)N[C@@H](CC(C)C)C(=O)N2)C(C)C` [3BP-3963] (Ac-VYCE[dP]KWLEWS[Pen]-NH2; linker 3-12 via mXylylene; lactam 6-9), the IC50 was under 10 nM.

For the compound `CC(=O)N[C@H](C(=O)N[C@@H](Cc1ccc(O)cc1)C(=O)N[C@H]1CSCc2cccc(c2)CSC[C@@H](C(N)=O)NC(=O)[C@H](CO)NC(=O)[C@H](Cc2c[nH]c3ccccc23)NC(=O)[C@@H]2CC(=O)NCCC[C@H](NC(=O)[C@H]3CCCN3C(=O)[C@H](CCC(=O)O)NC1=O)C(=O)N[C@@H](Cc1c[nH]c3ccccc13)C(=O)N[C@@H](CC(C)C)C(=O)N2)C(C)C` [3BP-4005] (Ac-VYCE[dP][Orn]WLDWSC-NH2; linker 3-12 via mXylylene; lactam 6-9), the IC50 is under 10 nM.

As to `CC(=O)N[C@H](C(=O)N[C@@H](Cc1ccc(O)cc1)C(=O)N[C@H]1CSCc2cccc(c2)CSC[C@@H](C(N)=O)NC(=O)[C@H](CO)NC(=O)[C@H](Cc2c[nH]c3ccccc23)NC(=O)[C@H]2CC(=O)NCCCC[C@H](NC(=O)[C@H]3CCCN3C(=O)[C@H](CCC(=O)O)NC1=O)C(=O)N[C@@H](Cc1c[nH]c3ccccc13)C(=O)N[C@@H](CC(C)C)C(=O)N2)C(C)C` [3BP-4043] (Ac-VYCE[dP]KWL[dD]WSC-NH2; linker 3-12 via mXylylene; lactam 6-9), the IC50 is 100 to 794 nM.

Consider `CC(=O)N[C@H](C(=O)N[C@@H](Cc1ccc(O)cc1)C(=O)N[C@H]1CSCc2cccc(c2)CSC[C@@H](C(N)=O)NC(=O)[C@H](CO)NC(=O)[C@H](Cc2c[nH]c3ccccc23)NC(=O)[C@@H]2CC(=O)NCCCC[C@H](NC(=O)[C@H]3CCCN3C(=O)[C@H](CCC(=O)O)NC1=O)C(=O)N[C@@H](Cc1c[nH]c3ccccc13)C(=O)N[C@@H](CC(C)C)C(=O)N2)C(C)C` [3BP-4046] (Ac-VYCE[dP]KWLDWSC-NH2; linker 3-12 via mXylylene; lactam 6-9), for which the IC50 was 10 to 79.4 nM.

With `CC(=O)N[C@H](C(=O)N[C@@H](Cc1ccc(O)cc1)C(=O)N[C@H]1CSCc2cccc(c2)CSC[C@@H](C(N)=O)NC(=O)[C@H](CO)NC(=O)[C@H](Cc2c[nH]c3ccccc23)NC(=O)[C@@H]2CC(=O)NCC[C@H](NC(=O)[C@H]3CCCN3C(=O)[C@H](CCC(=O)O)NC1=O)C(=O)N[C@@H](Cc1c[nH]c3ccccc13)C(=O)N[C@@H](CC(C)C)C(=O)N2)C(C)C` [3BP-4050] (Ac-VYCE[dP][Dab]WLDWSC-NH2; linker 3-12 via mXylylene; lactam 6-9), the IC50 was 100 to 794 nM.

Regarding `CC(C)C[C@@H]1NC(=O)[C@H](Cc2c[nH]c3ccccc23)NC(=O)[C@H](CCCN(C)C)NC(=O)[C@H]2CCCN2C(=O)[C@H](CCC(=O)O)NC(=O)[C@@H](NC(=O)[C@H](Cc2ccc(O)cc2)NC(=O)[C@@H](NC(=O)CN2CCC(NC(=O)CN3CCN(CC(=O)O)CCN(CC(=O)O)CCN(CC(=O)O)CC3)CC2)C(C)C)CSCc2cccc(c2)CSC[C@@H](C(N)=O)NC(=O)[C@H](CO)NC(=O)[C@H](Cc2c[nH]c3ccccc23)NC(=O)[C@H]([C@@H](C)O)NC1=O` [3BP-4098] ({DOTA}-[X2]VYCE[dP][Orn(Me2)]WLTWSC-NH2; linker 4-13 via mXylylene), the IC50 is 10 to 79.4 nM.

Regarding `CC(C)C[C@@H]1NC(=O)[C@H](Cc2c[nH]c3ccccc23)NC(=O)[C@H](CC(=O)O)NC(=O)[C@H]2CCCN2C(=O)[C@H](CCC(=O)O)NC(=O)[C@@H](NC(=O)[C@H](Cc2ccc(O)cc2)NC(=O)[C@@H](NC(=O)CN2CCC(NC(=O)CN3CCN(CC(=O)O)CCN(CC(=O)O)CCN(CC(=O)O)CC3)CC2)C(C)C)CSCc2cccc(c2)CSC[C@@H](C(N)=O)NC(=O)[C@H](CO)NC(=O)[C@H](Cc2c[nH]c3ccccc23)NC(=O)[C@H](CCCN(C)C)NC1=O` [3BP-4099] ({DOTA}-[X2]VYCE[dP]DWL[Orn(Me2)]WSC-NH2; linker 4-13 via mXylylene), the IC50 is under 10 nM.

Take `CC(C)C[C@@H]1NC(=O)[C@H](Cc2c[nH]c3ccccc23)NC(=O)[C@H](CC(=O)O)NC(=O)[C@H]2CCCN2C(=O)[C@H](CCC(=O)O)NC(=O)[C@@H](NC(=O)[C@H](Cc2ccc(O)cc2)NC(=O)[C@@H](NC(=O)CN2CCC(NC(=O)CN3CCN(CC(=O)O)CCN(CC(=O)O)CCN(CC(=O)O)CC3)CC2)C(C)C)CSCc2cccc(c2)CSC[C@@H](C(N)=O)NC(=O)[C@H](CCCN(C)C)NC(=O)[C@H](Cc2c[nH]c3ccccc23)NC(=O)[C@H]([C@@H](C)O)NC1=O` [3BP-4100] ({DOTA}-[X2]VYCE[dP]DWLTW[Orn(Me2)]C-NH2; linker 4-13 via mXylylene): the IC50 is under 10 nM.

The same experiment, now with this note: FACS competition on HT-29 cells, Tracer ID 3BP-2776 (10 nM, biotin-labeled), 4° C., 1 hour; read-out: pIC50 category (activity) (converted).
For `CC(=O)N[C@H](C(=O)N[C@@H](Cc1ccc(O)cc1)C(=O)N[C@H]1CSCc2cccc(c2)CSC[C@@H](C(N)=O)NC(=O)[C@H](CO)NC(=O)[C@H](Cc2c[nH]c3ccccc23)NC(=O)[C@@H]2CCC(=O)NCCCC[C@H](NC(=O)[C@H]3CCCN3C(=O)[C@H](CCC(=O)O)NC1=O)C(=O)N[C@@H](Cc1c[nH]c3ccccc13)C(=O)N[C@@H](CC(C)C)C(=O)N2)C(C)C` [3BP-3890] (Ac-VYCE[dP]KWLEWSC-NH2; linker 3-12 via mXylylene; lactam 6-9), the IC50 was under 10 nM.

With `CC(=O)N[C@H](C(=O)N[C@@H](Cc1ccc(O)cc1)C(=O)N[C@H]1CSCc2cccc(c2)CSC[C@@H](C(N)=O)NC(=O)[C@H](CO)NC(=O)[C@H](Cc2c[nH]c3ccccc23)NC(=O)[C@@H]2CCCCNC(=O)CC[C@H](NC1=O)C(=O)N1CCC[C@@H]1C(=O)N[C@@H](CC(=O)O)C(=O)N[C@@H](Cc1c[nH]c3ccccc13)C(=O)N[C@@H](CC(C)C)C(=O)N2)C(C)C` [3BP-3899] (Ac-VYCE[dP]DWLKWSC-NH2; linker 3-12 via mXylylene; lactam 4-9), the IC50 is 100 to 794 nM.

Turning to `CC(=O)N[C@H](C(=O)N[C@@H](Cc1ccc(O)cc1)C(=O)N[C@H]1CSCc2cccc(c2)CSC[C@@H](C(N)=O)NC(=O)[C@H](CO)NC(=O)[C@H](Cc2c[nH]c3ccccc23)NC(=O)[C@@H]2CCCCNC(=O)CC[C@H](NC(=O)[C@H]3CCCN3C(=O)[C@H](CCC(=O)O)NC1=O)C(=O)N[C@@H](Cc1c[nH]c3ccccc13)C(=O)N[C@@H](CC(C)C)C(=O)N2)C(C)C` [3BP-3901] (Ac-VYCE[dP]EWLKWSC-NH2; linker 3-12 via mXylylene; lactam 6-9), the IC50 is 10 to 79.4 nM.

`CC(C)C[C@@H]1NC(=O)[C@H](Cc2c[nH]c3ccccc23)NC(=O)[C@@H]2CCCCNC(=O)CC[C@H](NC1=O)C(=O)N[C@@H](Cc1c[nH]c3ccccc13)C(=O)N[C@@H](CO)C(=O)N[C@H](C(N)=O)CSCc1cccc(c1)CSC[C@H](NC(=O)[C@H](Cc1ccc(O)cc1)NC(=O)[C@@H](NC(=O)CN1CCC(NC(=O)CN3CCN(CC(=O)O)CCN(CC(=O)O)CCN(CC(=O)O)CC3)CC1)C(C)C)C(=O)N[C@@H](CCC(=O)O)C(=O)N1CCC[C@@H]1C(=O)N2` [3BP-3933] ({DOTA}-[X2]VYCE[dP]KWLEWSC-NH2; linker 4-13 via mXylylene; lactam 7-10): the IC50 is 10 to 79.4 nM.

`CC(=O)N[C@H](C(=O)N[C@@H](Cc1ccc(O)cc1)C(=O)N[C@H]1CSCc2cccc(c2)CSC[C@@H](C(N)=O)NC(=O)[C@H](CO)NC(=O)[C@H](Cc2c[nH]c3ccccc23)NC(=O)[C@H]2CCC(=O)NCCCC[C@H](NC(=O)[C@H]3CCCN3C(=O)[C@H](CCC(=O)O)NC1=O)C(=O)N[C@@H](Cc1c[nH]c3ccccc13)C(=O)N[C@@H](CC(C)C)C(=O)N2)C(C)C` [3BP-3957] (Ac-VYCE[dP]KWL[dE]WSC-NH2; linker 3-12 via mXylylene; lactam 6-9): the IC50 was under 10 nM.
